Source: patent publication US8487130B2, “Menthylcarboxamides and their use as cooling agents” (International Flavors & Fragrances Inc., priority 2009, dated 2013)
Entries after “also recorded” stand apart in the source; their conditions may differ.

Tests used:
Assay type in all cases: in vivo
[1] = Flavor evaluation, tasted in water; conditions: for flavor evaluation: cooling: 40 ppm in water
[2] = Flavor evaluation, tasted in water; conditions: 40 ppm in water
Text: Flavor Evaluation of Structure I
Flavor evaluation of the (2S,5R)—N-[4-(4-Amino-4-oxobutyl)phenyl]-5-methyl-2-(propan-2-yl)cyclohexanecarboxamide in water at concentration 40 ppm: […]

[3] = tested on: descriptive analysis panel; experiment: Chewing gum cooling evaluation by descriptive analysis panel; conditions: gum blended with Structure I
Protocol: The following gum base formulation was prepared: [table] Structure I by itself and in separate mixtures with monomenthyl glutarate, 2-isopropyl-N,2,3-trimethylbutyramid, N-ethyl-p-menthanecarboxamide and menthyl acetoacetate at levels detailed in the Tables below was blended with the gum base in a Sigma mixer. The resultant chewing gum blend was then manufactured into strips 1 inch in width and 0.1 inches in thickness. These strips were cut into lengths of 3 inches each. […] Samples were profiled by a highly trained descriptive analysis panel. The ballot consisted of the following terms: Total impact, total mint, cooling-mouth closed, cooling-breath in, nasal cooling—breath in, throat irritation, bitterness, tongue irritation, numbing. Each attribute was rated at discrete time points including 5 secs, 30 secs, 90 secs, 3 mins, 5 mins, 7 mins, 10 mins, 15 mins, 20 mins, and 30 mins. The following table details the panelist's results for the combination of Structure I with monomenthyl glutarate, 2-isopropyl-N,2,3-trimethylbutyramid, N-ethyl-p-menthanecarboxamide and menthyl acetoacetate at 3 minutes, 8 minutes, 20 minutes and 30 minute, 40 minute and 50 minute intervals. The amounts are listed in weight percent.

For `CC(C)[C@@H]1CC[C@@H](C)CC1C(=O)Nc1ccc(CCCC(N)=O)cc1` (stereo partly drawn) [(2S,5R)—N-[4-(4-Amino-4-oxobutyl)phenyl]-5-methyl-2-(propan-2-yl)cyclohexanecarboxamide], the “flavor evaluation: cooling” value ([1]; 30 minutes) was “localized on tip”, the “flavor evaluation: cooling” value ([1]; ~3.5 minutes) was “beginning to build” and the “flavor evaluation: onset and character of cooling” value [2] was “Late onset of cooling after expectorating, peppery on tip of tongue and back of throat, cooling on tip, irritating on back of throat—sore throat, cooling building on tip of tongue, peppery in esophagus”. The “flavor evaluation: taste” value [2] was “Umami! Ribotide-like. Umami upfront”, the “flavor evaluation: cooling” value ([2]; after 20 minutes) was “Still going strong after 20 minutes and cooling on gums” and the “flavor evaluation: cooling” value ([2]; ~40 sec) was “cooling just beginning, throat irritation, slight numbing on tip of tongue, mouth-watering, mouth coating—all over”. The “flavor evaluation: cooling” value ([2]; ~7 minutes) was “continuing to build”.
For `CC(C)[C@@H]1CC[C@@H](C)CC1C(=O)Nc1ccc(CC(N)=O)cc1` (stereo partly drawn) [Structure I, (2S,5R)—N-[4-(2-Amino-2-oxoethyl)phenyl]-5-methyl-2-(propan-2-yl)cyclohexanecarboxamide], the duration of cooling ([1]; 1 ppm in water) was 30 min, the “flavor properties (cooling) when tasted in water” value ([1]; 1 ppm in water) was “clean with slight cooling up front that builds with time to moderate level” and the “flavor properties (cooling) when tasted in water” value ([1]; 10 ppm in water) was “moderate throat and mouth cooling that lingers with some bitter notes in background”. For the same compound, the duration of cooling ([1]; 10 ppm in water, with breath in) was 30 min, the panelist comment ([3]; Panelist 1, 11:05 (start 11:04)) was “Bitter, Brown, Sweet, slightly Vanilla” and the panelist comment ([3]; Panelist 1, 11:06 (start 11:04)) was “Start to notice cooling”. For the same compound, the panelist comment ([3]; Panelist 1, 11:08 (start 11:04)) was “Moderate cooling”, the panelist comment ([3]; Panelist 1, 11:11 (start 11:04)) was “Moderate cooling in mouth and now back of the throat; nice on breath in; also recorded: Continued long lasting cooling” and the panelist comment ([3]; Panelist 1, 11:15 (start 11:04)) was “Slight cooling moving to the front of the mouth”. For the same compound, the panelist comment ([3]; Panelist 1, 11:18 (start 11:04)) was “Stable cooling all over, nice level”, the panelist comment ([3]; Panelist 1, 11:22 (start 11:04)) was “Long lasting” and the panelist comment ([3]; Panelist 2, 11:04 (start)) was “Very sweet, brown”. The panelist comment ([3]; Panelist 2, 11:07 (start 11:04)) was “Started to notice cooling on breath and tip of the tongue”, the panelist comment ([3]; Panelist 2, 11:09 (start 11:04)) was “Started to notice on back of throat, continued to build in the rest of the mouth” and the panelist comment ([3]; Panelist 2, 11:11 (start 11:04)) was “Cooling consistent throughout mouth, slight irritation on the back of the throat”. The panelist comment ([3]; Panelist 2, 11:15 (start 11:04)) was “Cooling level the same”, the panelist comment ([3]; Panelist 2, 11:24 (start 11:04)) was “Still getting a good amount of cooling” and the panelist comment ([3]; Panelist 2, 12:07 (start 11:04)) was “Cooling is gone”. For the same compound, the panelist comment ([3]; Panelist 3, 11:07 (start 11:04)) was “Cooling on the back of the throat”, the panelist comment ([3]; Panelist 3, 11:14 (start 11:04)) was “Concentrated on the back of the throat; irritating” and the panelist comment ([3]; Panelist 3, 11:22 (start 11:04)) was “Full cooling after 20 min”. For the same compound, the panelist comment ([3]; Panelist 4, 11:07 (start 11:04)) was “Cooling perception begins (mild)”, the panelist comment ([3]; Panelist 4, 11:09 (start 11:04)) was “Cooling pleasant, builds to moderate cooling on the front/tip of tongue” and the panelist comment ([3]; Panelist 4, 11:11 (start 11:04)) was “Intensity max reached”. The panelist comment ([3]; Panelist 4, 11:14 (start 11:04)) was “Cooling plateau, maintained. Delocalized all over mouth”, the panelist comment ([3]; Panelist 4, 11:19 (start 11:04)) was “Remains intense” and the panelist comment ([3]; Panelist 4, 11:20 (start 11:04)) was “Moves to throat (mild) very intense on tip of the tongue and center”. For the same compound, the panelist comment ([3]; Panelist 4, 11:24 (start 11:04)) was “Still cooling”, the panelist comment ([3]; Panelist 4, 12:00 (start 11:04)) was “Cooling remains” and the panelist comment ([3]; Panelist 4, 12:15 (start 11:04)) was “Cooling diminished significantly”.
